US20250122188A1, “MODULATORS OF THE INTEGRATED STRESS PATHWAY” (Calico Life Sciences LLC, priority 2016, published 2025)
Where two headings read alike, the source gives them in different places.

Columns and labels:
Type in all cases: cell-based
eIF2B mutant B4 R483W = experiment: ATF4-Luc assay, VWMD eIF2B mutant HEK293T ATF4-Fluc cells, B4 R483W; details: Homo sapiens, HEK-293T
Procedure: (§1) In order to test exemplary compounds of the invention in a cellular context, a stable VWMD cell line was first constructed. The ATF4 reporter was prepared by fusing the human full-length ATF4 5′-UTR (NCBI Accession No. BC022088.2) in front of the firefly luciferase (FLuc) coding sequence lacking the initiator methionine as described in Sidrauski et al (eLife 2013). The construct was used to produce recombinant retroviruses using standard methods and the resulting viral supernatant was used to transduce HEK293T cells, which were then subsequently selected with puromycin to generate a stable cell line.
(§2) HEK293T cells carrying the ATF4 luciferase reporter were plated on polylysine coated 384-well plates (Greiner Bio-one) at 30,000 cells per well. Cells were treated the next day with 1 μg/mL tunicamycin and 200 nM of a compound of Formula (I) for 7 hours. Luminescence was measured using One Glo (Promega) as specified by the manufacturer. Cells were maintained in DMEM with L-glutamine supplemented with 10% heat-inactivated FBS (Gibco) and Antibiotic-Antimycotic solution (Gibco).
(§3) VWMD mutations were introduced into the genome of the HEK293T ATF4-Fluc stable cell lines by using Gene Art CRISPR nuclease vector with OFP Reporter kit (ThermoFisher; see Table 3 below). Guide RNAs were designed using the CRISPR Design Tool (http://crispr.mit.edu) and ligated into the CRISPR OFP Nuclease Vector. To obtain homology directed repair (HDR) incorporating VWMD point mutations in the genome, 150 bp ssDNA ultramer oligos were synthesized by Integrated DNA Technologies containing specific mutations of interest. In addition to the VWMD mutations, the ssDNA HDR templates contained a silent mutation to the PAM site of the CRISPR gRNA sequence (to avoid further Cas9 cutting) and 75 bp of homology on each side of the mutation.
(§4) HEK293T ATF4-Fluc cells were transfected with 500 ng of the CRISPR OFP Nuclease Vector and 1 μL of 10 μM ssDNA HDR template using lipofectamine 3000 (ThermoFisher) or SF Cell Line 4D-nucleofector X Kit (Lonza) according to the manufacturer's instructions. After 2-3 days of recovery, single cells were sorted for positive OFP expression on a FACS Aria II (BD Biosciences) into wells of a 96 well plate and allowed to recover for 1-2 weeks.
(§5) The resulting clones were surveyed for CRISPR editing and HDR by harvesting the genomic DNA with the PureLink Genomic DNA kit (ThermoFisher), amplifying a […] locus near the editing site, and sequencing the amplicon. […] Typical clones obtained were hemizygous for the VWMD point mutation, with one or two alleles harboring the desired mutation, and the remaining alleles knocked out (edited to produce a premature stop codon).

eIF2B mutant B5 R113H = experiment: ATF4-Luc assay, VWMD eIF2B mutant HEK293T ATF4-Fluc cells, B5 R113H; details: Homo sapiens, HEK-293T
Procedure: as §1, §2, §3, §4, §5

eIF2B mutant B3 I346T = experiment: ATF4-Luc assay, VWMD eIF2B mutant HEK293T ATF4-Fluc cells, B3 I346T; details: Homo sapiens, HEK-293T
Procedure: as §1, §2, §3, §4, §5

[1] = test system: ATF4 luciferase reporter in HEK293T cells; experiment: ATF4-Luc assay, HEK293T cells carrying the ATF4 luciferase reporter (in vitro model of VWMD); details: Homo sapiens, HEK-293T, read-out: ATF4-Luc EC50
Procedure: as §1, §2

eIF2B mutant B4 R357W = experiment: ATF4-Luc assay, VWMD eIF2B mutant HEK293T ATF4-Fluc cells, B4 R357W; details: Homo sapiens, HEK-293T
Procedure: as §1, §2, §3, §4, §5

eIF2B mutant B1 V184 = experiment: ATF4-Luc assay, VWMD eIF2B mutant HEK293T ATF4-Fluc cells, B1 V184; details: Homo sapiens, HEK-293T
Procedure: as §1, §2, §3, §4, §5

eIF2B mutant B5 R195H = experiment: ATF4-Luc assay, VWMD eIF2B mutant HEK293T ATF4-Fluc cells, B5 R195H; details: Homo sapiens, HEK-293T
Procedure: as §1, §2, §3, §4, §5

eIF2B mutant B3 H341Q = experiment: ATF4-Luc assay, VWMD eIF2B mutant HEK293T ATF4-Fluc cells, B3 H341Q; details: Homo sapiens, HEK-293T
Procedure: as §1, §2, §3, §4, §5

[2] = HEK293T ATF4 luciferase reporter cells, 1 μg/mL tunicamycin, 7 hours

With O=C(COc1ccc(Cl)c(F)c1)NC12CCC(NC(=O)COc3ccc(Cl)c(F)c3)(CC1)[C@H](O)C2 [Compound 298, N,N′-[(2R)-2-hydroxybicyclo[2.2.2]octane-1,4-diyl]bis[2-(4-chloro-3-fluorophenoxy)acetamide]] the EC50 (eIF2B mutant B4 R483W) was < 10 nM, the EC50 (eIF2B mutant B5 R113H) was < 10 nM and the EC50 (eIF2B mutant B3 I346T) was < 10 nM. For the same compound, the EC50 [1, 2] was < 10 nM, the EC50 (eIF2B mutant B4 R357W) was < 10 nM and the EC50 (eIF2B mutant B1 V184) was < 10 nM. For the same compound, the EC50 (eIF2B mutant B5 R195H) was < 10 nM and the EC50 (eIF2B mutant B3 H341Q) was < 10 nM.

O=C(COc1ccc(Cl)c(F)c1)NC12CCC(NC(=O)COc3ccnn(CC(F)(F)F)c3=O)(CC1)C(O)C2 (stereo not shown) [Compound 333, 2-(4-chloro-3-fluorophenoxy)-N-[3-hydroxy-4-(2-{[3-oxo-2-(2,2,2-trifluoroethyl)-2,3-dihydropyridazin-4-yl]oxy}acetamido)bicyclo[2.2.2]octan-1-yl]acetamide] gave an EC50 [1, 2] of 250 to 500000 nM.

In the case of O=C(COc1ccc(Cl)cc1)NC12CC(NC(=O)COc3ccc(Cl)cc3)(C1)C2 [Compound 112, N,N′-(bicyclo[1.1.1]pentane-1,3-diyl)bis[2-(4-chlorophenoxy)acetamide]], the EC50 (eIF2B mutant B4 R483W) is reported as < 10 nM, the EC50 (eIF2B mutant B5 R113H) is reported as < 10 nM and the EC50 (eIF2B mutant B3 I346T) is reported as < 10 nM. The EC50 (eIF2B mutant B4 R357W) was < 10 nM, the EC50 (eIF2B mutant B1 V184) was < 10 nM and the EC50 (eIF2B mutant B5 R195H) was < 10 nM. The EC50 (eIF2B mutant B3 H341Q) was < 10 nM.

CC(C)(O)c1ccc(OCC(=O)NC23CC(NC(=O)COc4ccc(Cl)c(Cl)c4)(C2)C3)cc1 [Compound 422, 2-(3,4-dichlorophenoxy)-N-(3-{2-[4-(2-hydroxypropan-2-yl)phenoxy]acetamido}bicyclo[1.1.1]pentan-1-yl)acetamide] gave an EC50 [1, 2] of 250 to 500000 nM.

Work on O=C(CCOCc1cccc(Cl)c1)NC12CC(NC(=O)COc3ccc(Cl)c(F)c3)(C1)C2 [Compound 163, N-{3-[2-(4-chloro-3-fluorophenoxy)acetamido]bicyclo[1.1.1]pentan-1-yl}-3-[(3-chlorophenyl)methoxy]propanamide] yielded an EC50 [1, 2] of 250 to 500000 nM.

In the case of O=C(COCc1ccc(OC(F)F)nc1)NC12CC(NC(=O)COc3ccc(Cl)c(F)c3)(C1)C2 [Compound 279, 2-(4-chloro-3-fluorophenoxy)-N-[3-(2-{[6-(difluoromethoxy)pyridin-3-yl]methoxy}acetamido)bicyclo[1.1.1]pentan-1-yl]acetamide], the EC50 [1, 2] is reported as 250 to 500000 nM.

Cc1cccc(CCOCC(=O)NC23CC(NC(=O)COc4ccc(Cl)c(F)c4)(C2)C3)c1 [Compound 136, 2-(4-chloro-3-fluorophenoxy)-N-(3-{2-[2-(3-methylphenyl)ethoxy]acetamido}-bicyclo[1.1.1]pentan-1-yl)acetamide] was tested, and the EC50 [1, 2] was 250 to 500000 nM.

For O=C(COc1ccc(Cl)c(F)c1)NC12CCC(NC(=O)COc3ncccn3)(CC1)[C@@H](O)C2 [Compound 500, 2-(4-chloro-3-fluorophenoxy)-N-[(3S)-3-hydroxy-4-{2-[(pyrimidin-2-yl)oxy]acetamido}bicyclo[2.2.2]octan-1-yl]acetamide], the EC50 [1, 2] was > 2000 nM.

With N#Cc1cccc(COCC(=O)NC23CC(NC(=O)COc4ccc(Cl)c(F)c4)(C2)C3)c1 [Compound 138, 2-(4-chloro-3-fluorophenoxy)-N-(3-{2-[(3-cyanophenyl)methoxy]acetamido}-bicyclo[1.1.1]pentan-1-yl)acetamide] the EC50 [1, 2] was 250 to 500000 nM.

O=C(COc1ccc(Cl)c(F)c1)NC12CC(NC(=O)COc3ccnn3C3CC3)(C1)C2 [Compound 371, 2-(4-chloro-3-fluorophenoxy)-N-(3-{2-[(1-cyclopropyl-1H-pyrazol-5-yl)oxy]acetamido}bicyclo[1.1.1]pentan-1-yl)acetamide] gave an EC50 [1, 2] of 250 to 500000 nM.

Work on N#Cc1cc(OCC(=O)NC23CC(NC(=O)COc4ccc5c(c4)OC(F)(F)O5)(C2)C3)ccn1 [Compound 270, 2-[(2-cyanopyridin-4-yl)oxy]-N-(3-{2-[(2,2-difluoro-2H-1,3-benzodioxol-5-yl)oxy]acetamido}bicyclo[1.1.1]pentan-1-yl)acetamide] yielded an EC50 [1, 2] of 250 to 500000 nM.

With Cc1noc(COCC(=O)NC23CC(NC(=O)COc4ccc(Cl)c(F)c4)(C2)C3)n1 [Compound 217, 2-(4-chloro-3-fluorophenoxy)-N-(3-{2-[(3-methyl-1,2,4-oxadiazol-5-yl)methoxy]acetamido}bicyclo[1.1.1]pentan-1-yl)acetamide] the EC50 (eIF2B mutant B4 R483W) was > 2000 nM, the EC50 (eIF2B mutant B5 R113H) was > 2000 nM and the EC50 (eIF2B mutant B3 I346T) was > 2000 nM. For the same compound, the EC50 (eIF2B mutant B4 R357W) was > 2000 nM, the EC50 (eIF2B mutant B1 V184) was > 2000 nM and the EC50 (eIF2B mutant B5 R195H) was > 2000 nM. The EC50 (eIF2B mutant B3 H341Q) was > 2000 nM.

In the case of O=C(COc1ccc(Cl)c(F)c1)NC12CC(NC(=O)OCCCc3cccc(Cl)c3)(C1)C2 [Compound 166, 3-(3-chlorophenyl)propyl {3-[2-(4-chloro-3-fluorophenoxy)acetamido]-bicyclo[1.1.1]pentan-1-yl}carbamate], the EC50 [1, 2] is reported as 250 to 500000 nM.

For O=C(COc1ccc(C(F)(F)F)nc1)NC12CC(NC(=O)COc3ccc(Cl)c(F)c3)(C1)C2 [Compound 175, 2-(4-chloro-3-fluorophenoxy)-N-[3-(2-{[6-(trifluoromethyl)pyridin-3-yl]oxy}acetamido)bicyclo[1.1.1]pentan-1-yl]acetamide], the EC50 (eIF2B mutant B4 R483W) was < 10 nM, the EC50 (eIF2B mutant B5 R113H) was 10 to 50 nM and the EC50 (eIF2B mutant B3 I346T) was < 10 nM. The EC50 (eIF2B mutant B4 R357W) was 10 to 50 nM, the EC50 (eIF2B mutant B1 V184) was 50 to 250 nM and the EC50 (eIF2B mutant B5 R195H) was 10 to 50 nM. The EC50 (eIF2B mutant B3 H341Q) was 10 to 50 nM.

Cc1ccc(OC(=O)NC23CC(NC(=O)COc4ccc(Cl)c(F)c4)(C2)C3)cc1 [Compound 435, 4-methylphenyl {3-[2-(4-chloro-3-fluorophenoxy)acetamido]bicyclo[1.1.1]pentan-1-yl}carbamate] was tested, and the EC50 ([1]; 7 h) was 250 to 500000 nM.
